Assay results reported in ChEMBL document CHEMBL5154919, “New ZW4864 Derivatives as Small-Molecule Inhibitors for the β-Catenin/BCL9 Protein-Protein Interaction” (ACS Med Chem Lett, 2022).
Activity calls are given as the source filed them. The calls are words filed in the database; no cut-off is given here.

Columns and labels:
[1] = molecular target: CYP3A4 (Homo sapiens, UniProt P08684); experiment: Inhibition of CYP3A4 in human liver microsomes using Midazolam as substrate at 10 uM in presence of NADPH incubated for 10 mins; type: ADME, Microsome; conditions: probe midazolam
[2] = system: SW480; experiment: Antiproliferative activity against human SW480 cells assessed as inhibition of cell growth measured by MTS method; type: functional, cell-based
[3] = molecular target: CYP2D6 (Homo sapiens, UniProt P10635); experiment: Inhibition of CYP2D6 in human liver microsomes using bufuralol as substrate at 10 uM in presence of NADPH incubated for 10 mins; type: ADME, Microsome; conditions: probe bufuralol
[4] = system: MCF-10A; experiment: Antiproliferative activity against human MCF-10A cells assessed as inhibition of cell growth measured by MTS method; type: functional, cell-based
[5] = Effect of Wnt/beta-Catenin signaling pathway in human SW480 cells assessed as reduction in BCL9L level at 20 uM incubated for 24 hrs by qRT-PCR analysis relative to control; type: functional; conditions: SW480, 24 h
[6] = Effect of Wnt/beta-Catenin signaling pathway in human SW480 cells assessed as reduction in Cyclin D1 level at 5 uM incubated for 24 hrs by qRT-PCR analysis relative to control; type: functional; conditions: SW480, 24 h
[7] = system: SW480; experiment: Effect of Wnt/beta-Catenin signaling pathway in human SW480 cells assessed as decrease in Axin2 level at 20 uM incubated for 24 hrs by Western blot analysis; type: functional, cell-based; conditions: DDE = dose-dependent effect
[8] = Effect of Wnt/beta-Catenin signaling pathway in human SW480 cells assessed as reduction in Axin2 level at 20 uM incubated for 24 hrs by qRT-PCR analysis relative to control; type: functional; conditions: SW480, 24 h
[9] = system: SW480; experiment: Effect of Wnt/beta-Catenin signaling pathway in human SW480 cells assessed as decrease in Cyclin D1 level at 20 uM incubated for 24 hrs by Western blot analysis; type: functional, cell-based; conditions: DDE = dose-dependent effect
[10] = Effect of Wnt/beta-Catenin signaling pathway in human SW480 cells assessed as reduction in Cyclin D1 level at 20 uM incubated for 24 hrs by qRT-PCR analysis relative to control; type: functional; conditions: SW480, 24 h
[11] = Effect of Wnt/beta-Catenin signaling pathway in human SW480 cells assessed as reduction in Axin2 level at 5 uM incubated for 24 hrs by qRT-PCR analysis relative to control; type: functional; conditions: SW480, 24 h
[12] = system: MDA-MB-231; experiment: Antiproliferative activity against human MDA-MB-231 cells assessed as inhibition of cell growth measured by MTS method; type: functional, cell-based
[13] = Effect of Wnt/beta-Catenin signaling pathway in human SW480 cells assessed as reduction in HPRT level at 5 uM incubated for 24 hrs by qRT-PCR analysis relative to control; type: functional; conditions: SW480, 24 h
[14] = Effect of Wnt/beta-Catenin signaling pathway in human SW480 cells assessed as reduction in BCL9L level at 5 uM incubated for 24 hrs by qRT-PCR analysis relative to control; type: functional; conditions: SW480, 24 h
[15] = Effect of Wnt/beta-Catenin signaling pathway in human SW480 cells assessed as reduction in HPRT level at 20 uM incubated for 24 hrs by qRT-PCR analysis relative to control; type: functional; conditions: SW480, 24 h
[16] = system: SW480; experiment: Inhibition of Wnt/beta-catenin transactivation signalling in human SW480 cells transfected with beta-catenin plasmid at 10 uM by TOPFlash luciferase assay; type: cell-based
[17] = Effect of Wnt/beta-Catenin signaling pathway in human SW480 cells assessed as reduction in Cyclin D1 level at 10 uM incubated for 24 hrs by qRT-PCR analysis relative to control; type: functional; conditions: SW480, 24 h
[18] = Metabolic stability in mouse Hepatocyte assessed as half life; type: ADME, cell-based; conditions: hepatocytes
[19] = Inhibition of Wnt/beta-catenin transactivation signalling in human SW480 cells by TOPFlash reporter gene assay; type: cell-based
[20] = system: MDA-MB-468; experiment: Effect of Wnt/beta-Catenin signaling in human MDA-MB-468 cells transfected with beta-catenin plasmid assessed as inhibition of cell growth rescue measured after 72 hrs by MTS assay; type: functional, cell-based
[21] = molecular target: CYP2C9 (Homo sapiens, UniProt P11712); experiment: Inhibition of CYP2C9 in human liver microsomes using tolbutamide as substrate at 10 uM in presence of NADPH incubated for 10 mins; type: ADME, Microsome; conditions: probe tolbutamide
[22] = system: HCT-116; experiment: Antiproliferative activity against human HCT-116 cells assessed as inhibition of cell growth measured by MTS method; type: functional, cell-based
[23] = Effect of Wnt/beta-Catenin signaling pathway in human SW480 cells assessed as HPRT level at 10 uM incubated for 24 hrs by qRT-PCR analysis relative to control; conditions: SW480, 24 h
[24] = system: MDA-MB-468; experiment: Antiproliferative activity against human MDA-MB-468 cells assessed as inhibition of cell growth measured by MTS method; type: functional, cell-based
[25] = Metabolic stability in human Hepatocyte assessed as half life; type: ADME, cell-based; conditions: hepatocytes

Sequence of CYP2C9 (P11712 whole entry): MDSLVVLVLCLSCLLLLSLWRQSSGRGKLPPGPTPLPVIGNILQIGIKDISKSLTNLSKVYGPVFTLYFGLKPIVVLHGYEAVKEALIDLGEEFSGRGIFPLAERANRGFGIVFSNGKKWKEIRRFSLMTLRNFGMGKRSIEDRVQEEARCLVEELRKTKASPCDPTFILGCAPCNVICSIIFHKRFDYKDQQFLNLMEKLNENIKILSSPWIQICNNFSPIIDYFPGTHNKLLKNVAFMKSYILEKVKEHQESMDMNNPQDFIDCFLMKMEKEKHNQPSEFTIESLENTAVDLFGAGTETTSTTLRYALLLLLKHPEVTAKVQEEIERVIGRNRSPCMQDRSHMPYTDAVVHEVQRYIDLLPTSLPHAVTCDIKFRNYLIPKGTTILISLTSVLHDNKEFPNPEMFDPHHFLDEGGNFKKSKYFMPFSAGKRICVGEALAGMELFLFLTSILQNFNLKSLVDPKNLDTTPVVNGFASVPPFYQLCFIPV
Sequence of CYP3A4 (P08684 whole entry): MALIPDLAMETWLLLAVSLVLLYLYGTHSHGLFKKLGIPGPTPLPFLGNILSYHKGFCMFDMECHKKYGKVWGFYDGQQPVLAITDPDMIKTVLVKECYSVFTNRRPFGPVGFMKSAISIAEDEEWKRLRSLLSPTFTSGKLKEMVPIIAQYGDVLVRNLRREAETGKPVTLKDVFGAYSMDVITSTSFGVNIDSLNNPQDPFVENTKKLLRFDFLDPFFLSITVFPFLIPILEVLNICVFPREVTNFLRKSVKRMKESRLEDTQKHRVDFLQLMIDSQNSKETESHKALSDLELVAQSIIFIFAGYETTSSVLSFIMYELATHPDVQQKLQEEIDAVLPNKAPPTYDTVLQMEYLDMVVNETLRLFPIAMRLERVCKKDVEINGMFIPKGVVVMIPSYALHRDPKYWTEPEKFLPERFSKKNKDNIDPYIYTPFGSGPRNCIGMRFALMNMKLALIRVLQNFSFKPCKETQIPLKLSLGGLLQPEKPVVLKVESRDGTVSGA
Sequence of CYP2D6 (P10635 whole entry): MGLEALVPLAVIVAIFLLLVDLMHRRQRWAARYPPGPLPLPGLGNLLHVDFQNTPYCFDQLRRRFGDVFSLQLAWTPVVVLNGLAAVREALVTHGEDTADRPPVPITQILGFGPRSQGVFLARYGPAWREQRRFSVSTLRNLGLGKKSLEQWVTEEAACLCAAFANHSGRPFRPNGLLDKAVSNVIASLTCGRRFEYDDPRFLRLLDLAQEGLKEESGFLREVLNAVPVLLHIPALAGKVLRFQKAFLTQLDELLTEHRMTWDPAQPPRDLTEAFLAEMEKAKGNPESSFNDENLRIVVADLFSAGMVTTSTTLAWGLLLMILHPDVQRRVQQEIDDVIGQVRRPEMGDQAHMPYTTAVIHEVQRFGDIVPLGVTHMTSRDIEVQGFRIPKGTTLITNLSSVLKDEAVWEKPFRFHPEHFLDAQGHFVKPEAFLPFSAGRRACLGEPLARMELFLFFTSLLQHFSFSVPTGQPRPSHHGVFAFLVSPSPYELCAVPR

Molecule `CC(C)(Oc1cccc(N2CCC[C@@H](C(=O)N(Cc3ccc(-c4cnc5[nH]ccc5c4)cc3)C3CC3)C2)c1)C(=O)N1CCNCC1.Cl` has an inhibition at 10 min, 10 µM [1] of 97%, an IC50 [2] of 14 µM and an inhibition at 10 min, 10 µM [3] of 54%. It also gave an IC50 [4] of 36 µM, a level, % of control at 20 µM [5] of 32% and a level, % of control at 5 µM [6] of 89%. The inhibition [7] was “Dde”, the level, % of control at 20 µM [8] was 19% and the inhibition [9] was “Dde”. The level, % of control at 20 µM [10] was 29%, the level, % of control at 5 µM [11] was 72% and the IC50 [12] was 6.3 µM. The level, % of control at 5 µM [13] was 99%, the level, % of control at 5 µM [14] was 77% and the level, % of control at 20 µM [15] was 99%. The inhibition [16] was “Active”, the level, % of control at 10 µM [17] was 54% and the half-life [18] was 11.6 min. For the same molecule, the IC50 [19] was 7 µM, the inhibition [20] was “Active” and the inhibition at 10 min, 10 µM [21] was 91%. It also gave an IC50 [22] of 9.5 µM, a level, % of control at 10 µM [23] of 100% and an IC50 [24] of 5 µM. The half-life [25] was 25.2 min.
